Measurements: ChEMBL document CHEMBL5500418, “Structure-Activity Study on Substituted, Core-Extended, and Dyad Naphthalene Diimide G-Quadruplex Ligands Leading to Potent Antitrypanosomal Agents” (J Med Chem, 2024)

Assays:
Quadruplex DNA [1] = test: Stabilization of 22AG G4 DNA (unknown origin) assessed as change in melting temperature at 1 uM by FRET assay; format: nucleic-acid assay
Quadruplex DNA [2] = test: Stabilization of Trypanosoma brucei ERB1 G4 DNA assessed as change in melting temperature at 1 uM by FRET assay; format: nucleic-acid assay
[3] = Selectivity index, ratio of IC50 for human MRC5 to IC50 for Trypanosoma brucei measured after 72 hrs by alamar blue assay; format: toxicity; conditions: MRC5 cells, read-out: Ratio IC50
[4] = Selectivity index, ratio of IC50 for human MRC5 to IC50 for Leishmania major measured after 72 hrs by MTT assay; format: toxicity; conditions: MRC5 cells, read-out: Ratio IC50
Leishmania major = test: Antileishmanial activity against Leishmania major promastigotes MHOM/IL/80/Friedlin measured after 72 hrs by MTT assay; format: functional, organism-based
Trypanosoma brucei [5] = test: Antitrypanosomal activity against bloodstream-stage Trypanosoma brucei measured after 72 hrs by alamar blue assay; format: functional, organism-based
[6] = Cytotoxicity against human MRC5 cells incubated for 72 hrs by alamar blue staining based assay; format: toxicity, cell-based
Trypanosoma brucei [7] = test: Antitrypanosomal activity against Trypanosoma brucei; format: functional, organism-based
Quadruplex DNA [8] = test: Stabilization of 22AG G4 DNA (unknown origin) assessed as change in melting temperature at 265 nm wavelength at 5 uM by CD spectroscopy; format: nucleic-acid assay
Quadruplex DNA [9] = test: Stabilization of Trypanosoma brucei ERB1 G4 DNA assessed as change in melting temperature at 292 nm wavelength at 5 uM by CD spectroscopy; format: nucleic-acid assay
Quadruplex DNA [10] = test: Stabilization of 22AG G4 DNA (unknown origin) assessed as change in melting temperature at 292 nm wavelength at 5 uM by CD spectroscopy; format: nucleic-acid assay
Quadruplex DNA [11] = test: Stabilization of Trypanosoma brucei ERB1 G4 DNA assessed as change in melting temperature at 265 nm wavelength at 5 uM by CD spectroscopy; format: nucleic-acid assay
[12] = Drug uptake in Trypanosoma brucei at 4 to 37 degreeC at 5 uM after 30 to 120 mins by flow cytometry analysis; format: ADME; conditions: time 30-120 min
[13] = Selectivity index, ratio of IC50 for human MRC5 to IC50 for Trypanosoma brucei measured after 72 hrs by CellTiter-Glo luminescent assay; format: toxicity; conditions: MRC5 cells, read-out: Ratio IC50
Trypanosoma brucei [14] = test: Trypanocidal activity against bloodstream-stage Trypanosoma brucei measured after 72 hrs by CellTiter-Glo luminescent assay; format: functional, organism-based
[15] = Drug uptake in human MRC5 cells at 4 to 37 degreeC at 5 uM after 30 to 120 mins by flow cytometry analysis; format: ADME, cell-based; conditions: mrc5, 5 µM, time 30-120 min
[16] = Drug localization in human MRC5 cells nucleus at 37 degreeC at 5 uM after 30 mins by DAPI staining based fluorescence microscopy analysis; format: ADME, subcellular; conditions: mrc5, 0.5 h
[17] = Drug localization in Trypanosoma brucei nucleus at 37 degreeC at 5 uM after 30 mins by DAPI staining based fluorescence microscopy analysis; format: ADME, subcellular; conditions: 0.5 h
[18] = Drug localization in Trypanosoma brucei at 5 uM after 120 mins by DAPI staining based fluorescence microscopy analysis; format: ADME; conditions: 2 h
[19] = Drug localization in Trypanosoma brucei kinetoplast at 37 degreeC at 5 uM after 30 mins by DAPI staining based fluorescence microscopy analysis; format: ADME, subcellular; conditions: 0.5 h
[20] = Drug localization in human MRC5 cells cytoplasm at 37 degreeC at 5 uM after 30 mins by DAPI staining based fluorescence microscopy analysis; format: ADME, subcellular; conditions: mrc5, 0.5 h

CCCNc1cc2c3c(ccc4c3c1C(=O)N(CCCN(C)C)C4=O)C(=O)N(CCCN(C)C)C2=O
ΔTm (Quadruplex DNA [1]): > 30 °C
ΔTm (Quadruplex DNA [2]): 12 °C
selectivity ratio at 72 h [3]: 40
selectivity ratio at 72 h [4]: 10.6

O=C1c2ccc3c4c(ccc(c24)C(=O)N1CCOCCO)C(=O)N(CCOCCO)C3=O
ΔTm (Quadruplex DNA [1]): -2.2 °C
IC50 (Leishmania major): 3760 nM
ΔTm (Quadruplex DNA [2]): 1.3 °C
IC50 (Trypanosoma brucei [5]): 2500 nM
IC50 at 72 h [6]: 14500 nM
selectivity ratio at 72 h [3]: 5.8
selectivity ratio at 72 h [4]: 3.85

CN(C)CCCNc1cc2c3c(c(NCCCN(C)C)cc4c3c1C(=O)N(CCCN(C)C)C4=O)C(=O)N(CCCN(C)C)C2=O
ΔTm (Quadruplex DNA [1]): > 30 °C
IC50 (Leishmania major): 11800 nM
ΔTm (Quadruplex DNA [2]): > 30 °C
IC50 (Trypanosoma brucei [5]): 54 nM
IC50 at 72 h [6]: 2100 nM
selectivity ratio at 72 h [3]: 38.9
selectivity ratio at 72 h [4]: 0.18

COCCOCCNc1cc2c3c(ccc4c3c1C(=O)N(CCCN(C)C)C4=O)C(=O)N(CCCN(C)C)C2=O
ΔTm (Quadruplex DNA [1]): 4.4 °C
IC50 (Leishmania major): 4420 nM
ΔTm (Quadruplex DNA [2]): 9.7 °C
IC50 (Trypanosoma brucei [5]): 61 nM
IC50 at 72 h [6]: 5000 nM
selectivity ratio at 72 h [3]: 80.6
selectivity ratio at 72 h [4]: 1.1

N=C(N)c1ccc(OCCCCCOc2ccc(C(=N)N)cc2)cc1 [PENTAMIDINE]
IC50 (Trypanosoma brucei [7]): 0.2 nM

CN(C)CCCNc1cc2c3c(c(N(C)C)cc4c3c1C(=O)N(CCCN(C)C)C4=O)C(=O)N(CCCN(C)C)C2=O
ΔTm (Quadruplex DNA [8]): 8.9 °C
ΔTm (Quadruplex DNA [1]): 1.9 °C
ΔTm (Quadruplex DNA [9]): 2.7 °C
ΔTm (Quadruplex DNA [10]): -1.4 °C
ΔTm (Quadruplex DNA [11]): 2.4 °C
IC50 (Leishmania major): 2960 nM
ΔTm (Quadruplex DNA [2]): 3.6 °C
IC50 (Trypanosoma brucei [5]): 21 nM
IC50 at 72 h [6]: 7700 nM
selectivity ratio at 72 h [3]: 367
selectivity ratio at 72 h [4]: 2.6
Drug uptake [12]: 0%

O=c1c2ccc3c(=O)n(CCOCCO)c(=O)c4c5[nH]c6ccccc6[nH]c5c(c(=O)n1CCOCCO)c2c34
selectivity ratio at 72 h [13]: 13.8
ΔTm (Quadruplex DNA [1]): -2.2 °C
IC50 (Trypanosoma brucei [14]): 130 nM
IC50 (Leishmania major): > 100000 nM
ΔTm (Quadruplex DNA [2]): 2.1 °C
IC50 (Trypanosoma brucei [5]): 290 nM
IC50 at 72 h [6]: 1800 nM
selectivity ratio at 72 h [3]: 6.2
selectivity ratio at 72 h [4]: < 0.018

O=C1c2cc(NCCOCCO)c3c4c(cc(NCCOCCO)c(c24)C(=O)N1CCOCCO)C(=O)N(CCOCCO)C3=O
ΔTm (Quadruplex DNA [1]): 0.3 °C
IC50 (Leishmania major): > 100000 nM
ΔTm (Quadruplex DNA [2]): 3.5 °C
IC50 (Trypanosoma brucei [5]): 42700 nM
IC50 at 72 h [6]: > 100000 nM
selectivity ratio at 72 h [3]: > 2.3

CN(C)CCCn1c(=O)c2ccc3c(=O)n(CCCN(C)C)c(=O)c4c5[nH]c6ccccc6[nH]c5c(c1=O)c2c34
selectivity ratio at 72 h [13]: 328
Drug uptake [15]: Active
ΔTm (Quadruplex DNA [8]): 6.7 °C
ΔTm (Quadruplex DNA [1]): 8.5 °C
ΔTm (Quadruplex DNA [9]): 23 °C
ΔTm (Quadruplex DNA [10]): 3 °C
ΔTm (Quadruplex DNA [11]): 25.9 °C
IC50 (Trypanosoma brucei [14]): 0.07 nM
IC50 (Leishmania major): 2 nM
ΔTm (Quadruplex DNA [2]): > 30 °C
IC50 (Trypanosoma brucei [5]): 0.26 nM
IC50 at 72 h [6]: 23 nM
selectivity ratio at 72 h [3]: 88
selectivity ratio at 72 h [4]: 11.5
Drug uptake [12]: 20%

O=C1c2ccc3c4c(c(NCCOCCO)cc(c24)C(=O)N1CCOCCO)C(=O)N(CCOCCO)C3=O
ΔTm (Quadruplex DNA [1]): -1.4 °C
IC50 (Leishmania major): 14300 nM
ΔTm (Quadruplex DNA [2]): 2.9 °C
IC50 (Trypanosoma brucei [5]): 9500 nM
IC50 at 72 h [6]: > 100000 nM
selectivity ratio at 72 h [3]: > 10.5
selectivity ratio at 72 h [4]: > 6.98

CN(C)CCCNc1cc2c3c(c(NCCCCCCCNc4cc5c6c(ccc7c6c4C(=O)N(CCCN(C)C)C7=O)C(=O)N(CCCN(C)C)C5=O)cc4c3c1C(=O)N(CCCN(C)C)C4=O)C(=O)N(CCCN(C)C)C2=O
ΔTm (Quadruplex DNA [1]): 18.3 °C
IC50 (Leishmania major): > 100000 nM
ΔTm (Quadruplex DNA [2]): > 30 °C
IC50 (Trypanosoma brucei [5]): 8500 nM
IC50 at 72 h [6]: 66300 nM
selectivity ratio at 72 h [3]: 7.8
selectivity ratio at 72 h [4]: < 0.66

CN(C)CCCNc1cc2c3c(ccc4c3c1C(=O)N(CCCN(C)C)C4=O)C(=O)N(CCCN(C)C)C2=O
ΔTm (Quadruplex DNA [1]): 9.6 °C
IC50 (Leishmania major): > 100000 nM
ΔTm (Quadruplex DNA [2]): 19 °C
IC50 (Trypanosoma brucei [5]): 21500 nM
IC50 at 72 h [6]: > 100000 nM
selectivity ratio at 72 h [3]: > 4.6

CCCNC(=O)c1ccc2[nH]c3c([nH]c2c1)c1c(=O)n(CCCN(C)C)c(=O)c2ccc4c(=O)n(CCCN(C)C)c(=O)c3c4c21
selectivity ratio at 72 h [13]: 3450
Drug uptake [16]: Active
Drug uptake [17]: Active
Drug uptake [18]: Active
Drug uptake [15]: Active
ΔTm (Quadruplex DNA [8]): > 30 °C
ΔTm (Quadruplex DNA [1]): > 30 °C
ΔTm (Quadruplex DNA [9]): 26 °C
ΔTm (Quadruplex DNA [10]): 14.8 °C
ΔTm (Quadruplex DNA [11]): 22.7 °C
IC50 (Trypanosoma brucei [14]): 0.011 nM
IC50 (Leishmania major): 310 nM
ΔTm (Quadruplex DNA [2]): > 30 °C
IC50 (Trypanosoma brucei [5]): 0.09 nM
Drug uptake [19]: Not Active
IC50 at 72 h [6]: 38 nM
Drug uptake [20]: Not Active
selectivity ratio at 72 h [3]: 422
selectivity ratio at 72 h [4]: 0.12
Drug uptake [12]: 20%

CN(C)CCCN1C(=O)c2ccc3c4c(c(NCCCCCCCNc5cc6c7c(ccc8c7c5C(=O)N(CCCN(C)C)C8=O)C(=O)N(CCCN(C)C)C6=O)cc(c24)C1=O)C(=O)N(CCCN(C)C)C3=O
ΔTm (Quadruplex DNA [1]): > 30 °C
IC50 (Leishmania major): 2590 nM
ΔTm (Quadruplex DNA [2]): 15 °C
IC50 (Trypanosoma brucei [5]): 15 nM
IC50 at 72 h [6]: 62 nM
selectivity ratio at 72 h [3]: 4
selectivity ratio at 72 h [4]: 0.002

CN(C)CCCN1C(=O)c2cc(NCCOCCOCCNc3cc4c5c(c(Br)cc6c5c3C(=O)N(CCCCCC(=O)O)C6=O)C(=O)N(CCCCCC(=O)O)C4=O)c3c4c(cc(Br)c(c24)C1=O)C(=O)N(CCCN(C)C)C3=O
ΔTm (Quadruplex DNA [8]): 4.9 °C
ΔTm (Quadruplex DNA [1]): 3.8 °C
ΔTm (Quadruplex DNA [9]): 3.2 °C
ΔTm (Quadruplex DNA [10]): -2.5 °C
ΔTm (Quadruplex DNA [11]): 5.2 °C
IC50 (Leishmania major): > 100000 nM
ΔTm (Quadruplex DNA [2]): 7.1 °C
IC50 (Trypanosoma brucei [5]): 550 nM
IC50 at 72 h [6]: 14000 nM
selectivity ratio at 72 h [3]: 25
selectivity ratio at 72 h [4]: < 0.14

CN(C)CCCN1C(=O)c2ccc3c4c(c(NCCCO)cc(c24)C1=O)C(=O)N(CCCN(C)C)C3=O
ΔTm (Quadruplex DNA [1]): 5 °C
IC50 (Leishmania major): 2490 nM
ΔTm (Quadruplex DNA [2]): 12 °C
IC50 (Trypanosoma brucei [5]): 57 nM
IC50 at 72 h [6]: 5000 nM
selectivity ratio at 72 h [3]: 87.7
selectivity ratio at 72 h [4]: 2

CN(C)CCCN1C(=O)c2ccc3c4c(c(N5CCCCC5)cc(c24)C1=O)C(=O)N(CCCN(C)C)C3=O
ΔTm (Quadruplex DNA [1]): 2.3 °C
IC50 (Leishmania major): 170 nM
ΔTm (Quadruplex DNA [2]): 7.4 °C
IC50 (Trypanosoma brucei [5]): 32 nM
IC50 at 72 h [6]: 2600 nM
selectivity ratio at 72 h [3]: 81.3
selectivity ratio at 72 h [4]: 15.3

CN(C)CCCN1C(=O)c2ccc3c4c(c(NCc5cn(CCO[C@@H]6O[C@H](CO)[C@@H](O)[C@H](O)[C@H]6O)nn5)cc(c24)C1=O)C(=O)N(CCCN(C)C)C3=O
ΔTm (Quadruplex DNA [1]): 2.7 °C
ΔTm (Quadruplex DNA [2]): 8.6 °C
selectivity ratio at 72 h [3]: 41.8
selectivity ratio at 72 h [4]: 1.3

CN(C)CCCN1C(=O)c2ccc3c4c(c(NCc5cn([C@@H]6O[C@H](CO)[C@@H](O)[C@H](O)[C@H]6O)nn5)cc(c24)C1=O)C(=O)N(CCCN(C)C)C3=O
ΔTm (Quadruplex DNA [1]): 10 °C
ΔTm (Quadruplex DNA [2]): 11 °C
selectivity ratio at 72 h [3]: 47.9
selectivity ratio at 72 h [4]: 4.7
